Type in all cases: functional, cell-based
In one assay the test system is MGC-803. Briefly: Antiproliferative activity against human MGC-803 cells assessed as inhibition of cell growth measured after 72 hrs by SRB assay. As to conditions: MGC-803, 72 h. For orientation: In SRB staining, fixed cells bind dye roughly in proportion to their protein.
A further assay deals with HGC-27. As to the kind of experiment: Antiproliferative activity against human HGC-27 cells assessed as inhibition of cell growth measured after 72 hrs by SRB assay. As to conditions: HGC-27, 72 h.
The next assay deals with PC-3. As to the kind of experiment: Antiproliferative activity against human PC-3 cells assessed as inhibition of cell growth measured after 72 hrs by SRB assay. The note with it: PC-3, 72 h.
In the next assay the test system is SW1990. As to the kind of experiment: Antiproliferative activity against human SW1990 cells assessed as inhibition of cell growth measured after 72 hrs by SRB assay. As to conditions: SW1990, 72 h.
The test system of a further assay is TE-1. As to the kind of experiment: Antiproliferative activity against human TE-1 cells assessed as inhibition of cell growth measured after 72 hrs by SRB assay. The note with it: TE-1, 72 h.

One may read the IC50 as the concentration at which inhibition is half-maximal.

SMILES strings stand for the structures.

`C=C1C(=O)[C@]23[C@H](O)[C@H]1C[C@H](O)[C@H]2[C@]12CCCC(C)(C)[C@H]1C[C@H]3O[C@H]2OCCCCCCc1cn(CCCCCN2C(=O)c3cccc4c(N5CCCCC5)ccc(c34)C2=O)nn1`: the IC50 with MGC-803 was 4180 nM; in the assay on HGC-27 it was 2280 nM; in the assay on PC-3 it was 3890 nM; in the assay on SW1990, 4590 nM; in the assay on TE-1, 3450 nM.

With `C=C1C(=O)[C@]23[C@H](O)[C@H]1C[C@H](O)[C@H]2[C@]12CCCC(C)(C)[C@H]1C[C@H]3O[C@H]2OCCCCc1cn(CCOCCOCCOCCN2C(=O)c3cccc4c(N5CCCCC5)ccc(c34)C2=O)nn1`, the IC50 with MGC-803 was 3130 nM; in the assay on HGC-27, 2490 nM; in the assay on PC-3 it was 1040 nM; in the assay with SW1990 it was 4350 nM; with TE-1, 2430 nM.

Consider `C=C1C(=O)[C@]23[C@H](O)[C@H]1C[C@H](O)[C@H]2[C@]12CCCC(C)(C)[C@H]1C[C@H]3O[C@H]2OCCCc1cn(CCOCCOCCN2C(=O)c3cccc4c(N5CCCCC5)ccc(c34)C2=O)nn1`, for which the IC50 in the assay on MGC-803 was 3450 nM; in the assay on HGC-27 it was 1250 nM; with PC-3, 2170 nM; in the assay on SW1990, 1940 nM; with TE-1, 3020 nM.

As to `C=C1C(=O)[C@]23[C@H](O)[C@H]1C[C@H](O)[C@H]2[C@]12CCCC(C)(C)[C@H]1C[C@H]3O[C@H]2OCCCc1cn(CCCN2C(=O)c3cccc4c(N5CCCCC5)ccc(c34)C2=O)nn1`, the IC50 stood at 1320 nM in the assay with MGC-803; 4110 nM in the assay with HGC-27; 1240 nM with PC-3; 1130 nM with SW1990; 3540 nM in the assay with TE-1.

Consider `[N-]=[N+]=NCCCCCN1C(=O)c2cccc3c(N4CCCCC4)ccc(c23)C1=O`, for which the IC50 with MGC-803, with HGC-27, in the assay on PC-3, in the assay with SW1990 and in the assay on TE-1 was > 32000 nM in each case.

`C=C1C(=O)[C@]23[C@H](O)[C@H]1C[C@H](O)[C@H]2[C@]12CCCC(C)(C)[C@H]1C[C@H]3O[C@H]2OCCCc1cn(CCCCCCN2C(=O)c3cccc4c(N5CCCCC5)ccc(c34)C2=O)nn1`: the IC50 in the assay with MGC-803 was determined as 910 nM; with HGC-27 it was 3320 nM; in the assay on PC-3 it was 740 nM; in the assay with SW1990, 1200 nM; in the assay on TE-1, 2970 nM.

On to `C=C1C(=O)[C@]23[C@H](O)[C@H]1C[C@H](O)[C@H]2[C@]12CCCC(C)(C)[C@H]1C[C@H]3O[C@H]2OCCc1cn(CCCCN2C(=O)c3cccc4c(N5CCCCC5)ccc(c34)C2=O)nn1`, for which the IC50 in the assay on MGC-803 was 1510 nM; in the assay on HGC-27 it was 1610 nM; with PC-3, 740 nM; in the assay on SW1990 it was 1610 nM; in the assay with TE-1, 4890 nM.

Regarding `C=C1C(=O)[C@]23[C@H](O)[C@H]1C[C@H](O)[C@H]2[C@]12CCCC(C)(C)[C@H]1C[C@H]3O[C@H]2OCCc1cn(CCN2C(=O)c3cccc4c(N5CCCCC5)ccc(c34)C2=O)nn1`, the 50% inhibitory concentration (IC50) in the assay with MGC-803 was determined as 960 nM; in the assay with HGC-27 it was 2640 nM; in the assay on PC-3, 2500 nM; with SW1990 it was 880 nM; in the assay with TE-1 it was 3340 nM.

As for `C=C1C(=O)[C@]23[C@H](O)[C@H]1C[C@H](O)[C@H]2[C@]12CCCC(C)(C)[C@H]1C[C@H]3O[C@H]2OCCCCCc1cn(CCOCCOCCN2C(=O)c3cccc4c(N5CCCCC5)ccc(c34)C2=O)nn1`, the IC50 in the assay on MGC-803 came to 2640 nM; in the assay with HGC-27, 1800 nM; with PC-3, 1210 nM; in the assay with SW1990, 2150 nM; in the assay with TE-1, 1860 nM.

As to `C=C1C(=O)[C@]23[C@H](O)[C@H]1C[C@H](O)[C@H]2[C@]12CCCC(C)(C)[C@H]1C[C@H]3O[C@H]2OCCCc1cn(CCOCCOCCOCCN2C(=O)c3cccc4c(N5CCCCC5)ccc(c34)C2=O)nn1`, the IC50 came to 2180 nM in the assay on MGC-803; 3110 nM in the assay on HGC-27; 810 nM with PC-3; 1640 nM with SW1990; 1440 nM with TE-1.

As for `C#CCCO[C@@H]1O[C@@H]2C[C@@H]3C(C)(C)CCC[C@]13[C@@H]1[C@@H](O)C[C@H]3C(=C)C(=O)[C@@]21[C@@H]3O`, the IC50 is 6360 nM in the assay on MGC-803; 6480 nM in the assay on HGC-27; 4250 nM with PC-3; 4230 nM with SW1990; 7390 nM in the assay with TE-1.

Turning to `[N-]=[N+]=NCCCCCCN1C(=O)c2cccc3c(N4CCCCC4)ccc(c23)C1=O`, the half-maximal inhibitory concentration (IC50) in the assay with MGC-803, in the assay with HGC-27, with PC-3, with SW1990 and in the assay on TE-1 was > 32000 nM in each case.

As to `C#CCCCCCCO[C@@H]1O[C@@H]2C[C@@H]3C(C)(C)CCC[C@]13[C@@H]1[C@@H](O)C[C@H]3C(=C)C(=O)[C@@]21[C@@H]3O`, the 50% inhibitory concentration (IC50) in the assay on MGC-803 stood at 1970 nM; in the assay on HGC-27, 3010 nM; with PC-3, 2880 nM; in the assay with SW1990, 3260 nM; in the assay with TE-1, 3180 nM.

Turning to `C=C1C(=O)[C@]23[C@H](O)[C@H]1C[C@H](O)[C@H]2[C@]12CCCC(C)(C)[C@H]1C[C@H]3O[C@H]2OCCc1cn(CCOCCN2C(=O)c3cccc4c(N5CCCCC5)ccc(c34)C2=O)nn1`, the IC50 was found to be 2130 nM with MGC-803; 4140 nM in the assay on HGC-27; 990 nM with PC-3; 1180 nM with SW1990; 1310 nM in the assay on TE-1.

Take `[N-]=[N+]=NCCCN1C(=O)c2cccc3c(N4CCCCC4)ccc(c23)C1=O`: the concentration for half-maximal inhibition (IC50) in the assay on MGC-803, in the assay with HGC-27, with PC-3, in the assay on SW1990 and in the assay on TE-1 was > 32000 nM throughout.

As for `C=C1C(=O)[C@]23[C@H](O)[C@H]1C[C@H](O)[C@H]2[C@]12CCCC(C)(C)[C@H]1C[C@H]3O[C@H]2OCCCCCc1cn(CCCN2C(=O)c3cccc4c(N5CCCCC5)ccc(c34)C2=O)nn1`, the IC50 turned out to be 2430 nM with MGC-803; 3260 nM in the assay on HGC-27; 2490 nM in the assay with PC-3; 3650 nM in the assay on SW1990; 4620 nM in the assay with TE-1.

With `C=C1C(=O)[C@]23[C@H](O)[C@H]1C[C@H](O)[C@H]2[C@]12CCCC(C)(C)[C@H]1C[C@H]3O[C@H]2OCCCCc1cn(CCOCCN2C(=O)c3cccc4c(N5CCCCC5)ccc(c34)C2=O)nn1`, the half-maximal inhibitory concentration (IC50) in the assay with MGC-803 turned out to be 3210 nM; with HGC-27 it was 1950 nM; in the assay with PC-3, 1240 nM; with SW1990 it was 2250 nM; with TE-1, 2700 nM.

In the case of `C=C1C(=O)[C@]23[C@H](O)[C@H]1C[C@H](O)[C@H]2[C@]12CCCC(C)(C)[C@H]1C[C@H]3O[C@H]2OCCc1cn(CCOCCOCCOCCN2C(=O)c3cccc4c(N5CCCCC5)ccc(c34)C2=O)nn1`, the half-inhibitory concentration (IC50) turned out to be 2650 nM in the assay on MGC-803; 5260 nM with HGC-27; 930 nM with PC-3; 1560 nM in the assay with SW1990; 1870 nM with TE-1.

On to `C#CCCCCCO[C@@H]1O[C@@H]2C[C@@H]3C(C)(C)CCC[C@]13[C@@H]1[C@@H](O)C[C@H]3C(=C)C(=O)[C@@]21[C@@H]3O`, for which the IC50 in the assay with MGC-803 came to 3150 nM; in the assay with HGC-27, 2890 nM; in the assay on PC-3, 2450 nM; with SW1990, 2910 nM; with TE-1, 2440 nM.

`C=C1C(=O)[C@]23[C@H](O)[C@H]1C[C@H](O)[C@H]2[C@]12CCCC(C)(C)[C@H]1C[C@H]3O[C@H]2OCCCCc1cn(CCCN2C(=O)c3cccc4c(N5CCCCC5)ccc(c34)C2=O)nn1`: the half-maximal inhibitory concentration (IC50) with MGC-803 was 1200 nM; with HGC-27, 6130 nM; in the assay on PC-3 it was 770 nM; in the assay with SW1990, 3310 nM; with TE-1, 2640 nM.

For `C=C1C(=O)[C@]23[C@H](O)[C@H]1C[C@H](O)[C@H]2[C@]12CCCC(C)(C)[C@H]1C[C@H]3O[C@H]2OCCCCc1cn(CCOCCOCCN2C(=O)c3cccc4c(N5CCCCC5)ccc(c34)C2=O)nn1`, the IC50 with MGC-803 is 2930 nM; in the assay on HGC-27, 1750 nM; in the assay on PC-3 it was 1150 nM; with SW1990, 2160 nM; in the assay with TE-1, 2260 nM.

Consider `[N-]=[N+]=NCCOCCOCCOCCN1C(=O)c2cccc3c(N4CCCCC4)ccc(c23)C1=O`, for which the IC50 in the assay on MGC-803, in the assay with HGC-27, with PC-3, in the assay with SW1990 and with TE-1 was > 32000 nM throughout.

Consider `C=C1C(=O)[C@]23[C@H](O)[C@H]1C[C@H](O)[C@H]2[C@]12CCCC(C)(C)[C@H]1C[C@H]3O[C@H]2OCCCCCc1cn(CCCCCCN2C(=O)c3cccc4c(N5CCCCC5)ccc(c34)C2=O)nn1`, for which the half-inhibitory concentration (IC50) in the assay on MGC-803 worked out at 5880 nM; in the assay with HGC-27 it was 2170 nM; in the assay on PC-3 it was 990 nM; with SW1990, 5020 nM; in the assay on TE-1 it was 10100 nM.

Turning to `C=C1C(=O)[C@]23[C@H](O)[C@H]1C[C@H](O)[C@H]2[C@]12CCCC(C)(C)[C@H]1C[C@H]3O[C@H]2OCCc1cn(CCCCCN2C(=O)c3cccc4c(N5CCCCC5)ccc(c34)C2=O)nn1`, the IC50 was found to be 1510 nM in the assay on MGC-803; 2450 nM in the assay with HGC-27; 500 nM in the assay with PC-3; 2440 nM in the assay on SW1990; 3050 nM with TE-1.

The values are drawn from ChEMBL document CHEMBL5046249, “Synthesis, biological evaluation and cellular localization study of fluorescent derivatives of Jiyuan Oridonin A” (Eur J Med Chem, 2022).
